Test system: C9M-TF1 cells
Experiment: LY294002 control plate titration, Alamar Blue
Type: cell-based
Conditions: Homo sapiens, 72 h, FIG. 8
Description: (§1) This example describes an assay to examine the effect of the PI3K inhibitor LY294002 on cell survival for both FRAT2-[…]-TF1 or […]-TF1 cells, as determined by Alamar Blue. The growth factor GMCSF mediates its survival effect through the PI3/AKT pathway. Consequently, inhibitors of this pathway will increase apoptosis in pathway-dependent cell lines. Both FRAT2-[…]-TF1 or […]-TF1 are split 24 hours prior to drug treatment in order to bring the cultures into the log phase of growth. On the day of the assay the cells are plated directly into a 96 well microtitre plates containing 10 uL volumes of a serial dilutions of LY294002, such that there was a final cell number of 5000 cells per well in 90 uL volumes thus reducing the concentration of the compounds to their final test concentration. The plates are incubated for 72 h at 37° C. and 5% CO2 after which time they are assayed by Alamar Blue. […] The overexpression of FRAT2 leads to the stabilization β-catenin through disassociation of GSK3β from Axin and through the inhibition of β-catenin phosphorylation which results in an increased level of β-catenin in the nucleus of the cell where it forms a complex with the HMB box transcription factors LEF and TCF as well as with CREB Binding Protein. […]

Compound | EC50
O=c1cc(N2CCOCC2)oc2c(-c3ccccc3)cccc12 [LY294002, reference compound] | ~6 µM

Test system: FRAT2-C9M-TF1 cells
Experiment: LY294002 control plate titration, Alamar Blue
Type: cell-based
Conditions: Homo sapiens, 72 h, FIG. 8
Description: as §1

Compound | EC50
O=c1cc(N2CCOCC2)oc2c(-c3ccccc3)cccc12 [LY294002, reference compound] | ~50 µM

Test system: C9M-TF1 cells
Experiment: EC50 titration, Alamar Blue, suspension cells
Type: cell-based
Conditions: Homo sapiens, 72 h
Description: (§2) On the day of the assay compounds are used to prepare dilution series on Titration Plates which are plated at ten times their final screening concentration in 10 μl aliquots.
(§3) Suspension cells are split 24 hours prior to drug treatment in order to bring the cultures into the log phase of growth. On the day of the assay the cells are plated directly into the Titration Plates at the appropriate pre-determined seeding density (Table 1) in 90 μl volumes thus reducing the concentration of the compounds to their final test concentration. The plates are incubated for 72 hours at 37° C. and 5% CO2 after which time they are assayed by Alamar Blue.
(§4) The EC50 values are calculated using the values obtained from the Alamar Blue readout which are converted into a “Percentage of the Untreated Control” and using Graph Pad Prism these values are plotted against the logarithm of the test concentration. Using a non-linear regression analysis a sigmoidal dose-response curve is generated from which the EC50 is determined.

Compound | EC50
O=c1cc(N2CCOCC2)oc2c(-c3ccccc3)cccc12 [LY294002, reference compound] | 6.03 µM

Test system: LoVo
Experiment: EC50 titration, Alamar Blue
Type: cell-based
Conditions: Homo sapiens
Description: as §2
(§5) For adherent cell lines plated 24 hours previously, a 90 μl volume of the appropriate cell culture medium is then added to each well of the Titration Plates and mixed by repeated aspiration/dispensing, thus taking the compounds to their final test concentration. Once the Titration Plates have been prepared the media is removed from all wells of the cell culture plate and the contents of the Titration Plates are then transferred to the appropriate wells of their relevant Test Plates and incubated for 72 h at 37° C. and 5% CO2 after which time they are assayed by Alamar Blue. Using a combination of Microsoft Excel and Graph Pad Prism, EC50s are determined.
as §4

EC50 | Compound
3000 nM | O=c1cc(N2CCOCC2)oc2c(-c3ccccc3)cccc12 [LY294002, reference compound]

Test system: HCT116
Experiment: EC50 titration, Alamar Blue
Type: cell-based
Conditions: Homo sapiens, HCT-116
Description: as §2, §5, §4

EC50 | Compound
21 µM | O=c1cc(N2CCOCC2)oc2c(-c3ccccc3)cccc12 [LY294002, reference compound]

Test system: FRAT2-C9M-TF1 cells
Experiment: EC50 titration, Alamar Blue, suspension cells
Type: cell-based, Human
Conditions: FRAT2-C9M-TF1 cells more resistant
Description: as §2, §3, §4

Compound | difference of EC50 between FRAT2-C9M-TF1 and C9M-TF1 cells
O=c1cc(N2CCOCC2)oc2c(-c3ccccc3)cccc12 [LY294002, reference compound] | approx. 8.5 fold

Same assay, conditions: Homo sapiens; 72 h, Alamar Blue; absence of growth factor

Compound | EC50
O=c1cc(N2CCOCC2)oc2c(-c3ccccc3)cccc12 [LY294002, reference compound] | 75.9 µM

Same assay, conditions: Homo sapiens; 72 h, Alamar Blue; presence of growth factor

Compound | EC50
O=c1cc(N2CCOCC2)oc2c(-c3ccccc3)cccc12 [LY294002, reference compound] | 51.3 µM

Test system: non-transformed breast cell line MCF10A
Experiment: EC50 titration, Alamar Blue, adherent cells
Type: cell-based
Conditions: Homo sapiens, MCF-10A, 72 h
Description: as §2, §5, §4

Compound | EC50
O=c1cc(N2CCOCC2)oc2c(-c3ccccc3)cccc12 [LY294002, reference compound] | 12.9 µM

Test system: breast cancer cell line MCF7
Experiment: EC50 titration, Alamar Blue, adherent cells
Type: cell-based
Conditions: Homo sapiens, 72 h
Description: as §2, §5, §4

EC50 | Compound
1070 nM | O=c1cc(N2CCOCC2)oc2c(-c3ccccc3)cccc12 [LY294002, reference compound]

Test system: colon cancer cell line HT29
Experiment: EC50 titration, Alamar Blue, adherent cells
Type: cell-based
Conditions: Homo sapiens, HT-29, 72 h
Description: as §2, §5, §4

EC50 | Compound
5.37 µM | O=c1cc(N2CCOCC2)oc2c(-c3ccccc3)cccc12 [LY294002, reference compound]
